# From publication PMC7179119, “A New Positron Emission Tomography Probe for Orexin Receptors Neuroimaging” (Molecules, 2020)
# Like-named read-outs stand apart in the source and are kept apart here.
# Legend:
# Assay in all cases: PDSP off-target radioligand binding assay
# D2 = biological target: T1, D2 (Homo sapiens, UniProt P14416)
# T1 construct: NIMH PDSP
# Protocol: (§1) Table S1. Off binding data of CW24.
# (§2) The off-target binding assays were performed at PDSP with their standard protocol (https://pdspdb.unc.edu/pdspWeb/content/UNC-CH%20Protocol%20Book.pdf). In radioligand binding assays, CW24 was tested at a single concentration (10 µM) and in quadruplicate in 96-well plates. The binding assays were carried out in a final of volume of 125 µl per well in appropriate binding buffers. The hot ligand concentration is usually at a concentration close to the Kd (unless otherwise indicated). Total binding and nonspecific binding are determined in the absence and presence of 10 µM of the appropriate reference compound, respectively. In brief, plates are usually incubated at room temperature and in the dark for 90 mins. Reactions are stopped by vacuum filtration onto 0.3% polyethyleneimine (PEI) soaked 96-well filter mats using a 96-well Filtermate harvester, followed by three washes with cold wash buffers (for details, see Tables 2 to 24). Scintillation cocktail is then melted onto the microwave-dried filters on a hot plate and radioactivity is counted in a Microbeta counter.
# (§3) Receptor % Inhibition 1 % Inhibition 2 % Inhibition 3 % Inhibition 4 Mean±SD %
# Sigma 1 = conditions: 10 µM
# Protocol: as §1, §2, §3
# 5-HT6 = biological target: T2, 5-HT6 (Homo sapiens, UniProt P50406)
# T2 construct: NIMH PDSP
# T2 sequence (P50406 whole entry, species assumed): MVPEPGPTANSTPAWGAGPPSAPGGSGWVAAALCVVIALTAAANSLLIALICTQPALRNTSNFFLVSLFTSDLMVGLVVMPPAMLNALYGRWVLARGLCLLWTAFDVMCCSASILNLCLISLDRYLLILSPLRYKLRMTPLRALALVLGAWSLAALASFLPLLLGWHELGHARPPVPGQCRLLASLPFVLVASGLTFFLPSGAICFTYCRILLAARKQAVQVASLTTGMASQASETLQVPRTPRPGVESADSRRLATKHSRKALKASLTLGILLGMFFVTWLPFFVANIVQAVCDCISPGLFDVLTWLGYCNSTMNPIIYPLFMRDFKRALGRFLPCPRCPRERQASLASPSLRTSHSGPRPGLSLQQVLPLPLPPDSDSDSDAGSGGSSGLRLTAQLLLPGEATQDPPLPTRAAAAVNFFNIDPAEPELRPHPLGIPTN
# Protocol: as §1, §2, §3
# 5-HT1A = biological target: T3, 5-HT1A (Homo sapiens, UniProt P08908)
# T3 construct: NIMH PDSP
# T3 sequence (P08908 1-422): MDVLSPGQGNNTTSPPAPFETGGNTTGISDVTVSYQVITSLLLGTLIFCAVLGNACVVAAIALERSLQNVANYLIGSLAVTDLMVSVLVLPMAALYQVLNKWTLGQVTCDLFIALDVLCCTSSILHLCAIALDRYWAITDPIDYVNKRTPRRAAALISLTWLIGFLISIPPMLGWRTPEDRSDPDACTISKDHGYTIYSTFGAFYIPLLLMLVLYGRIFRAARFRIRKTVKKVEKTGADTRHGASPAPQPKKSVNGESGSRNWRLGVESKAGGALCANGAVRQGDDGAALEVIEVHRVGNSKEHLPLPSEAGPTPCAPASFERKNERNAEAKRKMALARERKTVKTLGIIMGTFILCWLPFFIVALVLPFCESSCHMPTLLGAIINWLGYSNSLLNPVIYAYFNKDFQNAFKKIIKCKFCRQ
# Protocol: as §1, §2, §3
# GABAA = conditions: 10 µM
# Protocol: as §1, §2, §3
# 5-HT1B = biological target: T4, 5-HT1B (Homo sapiens, UniProt P28222)
# T4 construct: NIMH PDSP
# T4 sequence (P28222 whole entry, species assumed): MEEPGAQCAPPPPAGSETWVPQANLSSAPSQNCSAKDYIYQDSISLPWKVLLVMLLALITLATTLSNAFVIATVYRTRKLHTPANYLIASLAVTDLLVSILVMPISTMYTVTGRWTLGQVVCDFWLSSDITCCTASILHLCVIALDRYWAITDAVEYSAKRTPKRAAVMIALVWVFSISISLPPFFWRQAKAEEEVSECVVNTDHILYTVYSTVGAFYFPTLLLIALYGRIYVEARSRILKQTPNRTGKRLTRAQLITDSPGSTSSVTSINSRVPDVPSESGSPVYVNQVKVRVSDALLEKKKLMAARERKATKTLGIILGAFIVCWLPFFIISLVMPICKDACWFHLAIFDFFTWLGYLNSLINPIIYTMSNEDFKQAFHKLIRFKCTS
# Protocol: as §1, §2, §3
# D3 = biological target: T5, D3 (Homo sapiens, UniProt P35462)
# T5 construct: NIMH PDSP
# T5 sequence (P35462 whole entry): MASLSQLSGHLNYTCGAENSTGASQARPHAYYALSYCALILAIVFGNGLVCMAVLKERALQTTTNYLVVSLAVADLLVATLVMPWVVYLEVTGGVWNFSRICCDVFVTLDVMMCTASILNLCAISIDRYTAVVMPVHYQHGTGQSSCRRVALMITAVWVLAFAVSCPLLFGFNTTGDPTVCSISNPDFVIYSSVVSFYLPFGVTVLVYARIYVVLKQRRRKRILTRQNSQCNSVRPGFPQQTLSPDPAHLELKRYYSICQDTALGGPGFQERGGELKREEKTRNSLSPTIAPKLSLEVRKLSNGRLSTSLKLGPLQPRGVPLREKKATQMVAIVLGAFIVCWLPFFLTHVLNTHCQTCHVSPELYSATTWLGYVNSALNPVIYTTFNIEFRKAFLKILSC
# Protocol: as §1, §2, §3
# DOR = DOR (Homo sapiens, UniProt P41143)
# Sequence of DOR (P41143 whole entry): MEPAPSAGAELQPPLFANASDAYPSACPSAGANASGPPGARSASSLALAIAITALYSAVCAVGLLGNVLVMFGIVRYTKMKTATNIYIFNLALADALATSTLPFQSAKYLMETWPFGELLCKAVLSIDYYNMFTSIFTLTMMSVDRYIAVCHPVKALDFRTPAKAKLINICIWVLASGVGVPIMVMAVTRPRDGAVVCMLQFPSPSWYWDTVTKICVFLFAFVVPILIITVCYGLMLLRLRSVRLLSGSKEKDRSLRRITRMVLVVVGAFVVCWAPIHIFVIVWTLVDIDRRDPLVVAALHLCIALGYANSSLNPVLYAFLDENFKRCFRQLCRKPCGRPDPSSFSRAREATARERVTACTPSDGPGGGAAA
# Protocol: as §1, §2, §3
# Alpha2C = biological target: T6, Alpha2C (Homo sapiens, UniProt P18825)
# T6 construct: NIMH PDSP
# T6 sequence (P18825 1-462): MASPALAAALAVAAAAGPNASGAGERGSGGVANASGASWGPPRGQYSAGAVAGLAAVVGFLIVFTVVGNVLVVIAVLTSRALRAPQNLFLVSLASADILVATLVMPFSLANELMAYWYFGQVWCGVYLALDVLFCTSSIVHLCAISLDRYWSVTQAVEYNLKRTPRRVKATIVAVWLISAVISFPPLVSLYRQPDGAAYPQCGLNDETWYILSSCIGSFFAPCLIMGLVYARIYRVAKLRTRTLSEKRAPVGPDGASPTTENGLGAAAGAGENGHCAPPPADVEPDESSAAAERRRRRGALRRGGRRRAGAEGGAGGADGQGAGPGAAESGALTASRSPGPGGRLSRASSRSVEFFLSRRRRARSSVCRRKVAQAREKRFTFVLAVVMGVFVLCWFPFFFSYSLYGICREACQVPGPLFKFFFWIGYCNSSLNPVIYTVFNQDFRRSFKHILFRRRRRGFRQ
# Protocol: as §1, §2, §3
# DAT = DAT (Homo sapiens, UniProt Q01959)
# Sequence of DAT (Q01959 whole entry, species assumed): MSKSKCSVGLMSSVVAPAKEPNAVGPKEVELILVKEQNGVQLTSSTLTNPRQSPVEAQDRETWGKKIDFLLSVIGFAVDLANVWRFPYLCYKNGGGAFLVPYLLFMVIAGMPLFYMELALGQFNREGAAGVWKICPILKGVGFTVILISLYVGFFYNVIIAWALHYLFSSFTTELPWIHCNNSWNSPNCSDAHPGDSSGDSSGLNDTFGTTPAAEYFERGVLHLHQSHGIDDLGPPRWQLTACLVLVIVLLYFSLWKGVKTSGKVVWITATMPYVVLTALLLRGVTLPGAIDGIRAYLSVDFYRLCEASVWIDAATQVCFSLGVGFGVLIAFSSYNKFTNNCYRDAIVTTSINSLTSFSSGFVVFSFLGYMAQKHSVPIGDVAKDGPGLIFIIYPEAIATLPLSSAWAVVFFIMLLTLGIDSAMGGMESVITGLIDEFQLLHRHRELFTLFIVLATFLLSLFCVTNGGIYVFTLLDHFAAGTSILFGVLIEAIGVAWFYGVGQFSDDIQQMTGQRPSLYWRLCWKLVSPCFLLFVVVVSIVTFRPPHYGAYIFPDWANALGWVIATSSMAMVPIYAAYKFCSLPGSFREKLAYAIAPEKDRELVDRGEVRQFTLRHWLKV
# Protocol: as §1, §2, §3
# [1] = quadruplicate, read-out: Mean±SD % inhibition
# [2] = replicate 1, read-out: % Inhibition 1
# [3] = replicate 2, read-out: % Inhibition 2
# [4] = replicate 3, read-out: % Inhibition 3
# [5] = replicate 4, read-out: % Inhibition 4
# T1 sequence (P14416 whole entry): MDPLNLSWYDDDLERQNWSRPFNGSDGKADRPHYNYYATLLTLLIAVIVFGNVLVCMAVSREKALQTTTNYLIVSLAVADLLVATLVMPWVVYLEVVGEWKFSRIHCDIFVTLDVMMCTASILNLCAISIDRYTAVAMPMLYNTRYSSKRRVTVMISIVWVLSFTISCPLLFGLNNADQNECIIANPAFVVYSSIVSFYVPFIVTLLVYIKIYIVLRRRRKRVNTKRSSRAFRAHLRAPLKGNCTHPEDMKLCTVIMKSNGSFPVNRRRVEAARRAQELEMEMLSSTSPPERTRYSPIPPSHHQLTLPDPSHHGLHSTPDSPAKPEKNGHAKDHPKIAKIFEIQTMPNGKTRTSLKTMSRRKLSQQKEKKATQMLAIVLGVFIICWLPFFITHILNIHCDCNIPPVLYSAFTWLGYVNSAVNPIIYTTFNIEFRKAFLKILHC
compound,measurement,setting,value
COc1ccnc(N2CCC3(CCCN(Cc4cn(C)c5ccccc45)C3=O)CC2)n1 [CW24],inhibition at 10 µM,D2; [1],-1.7 ± 19.3%
same,inhibition at 10 µM,D2; [2],-8.12%
same,inhibition at 10 µM,D2; [3],21.4%
same,inhibition at 10 µM,D2; [4],-24.2%
same,inhibition at 10 µM,D2; [5],4.13%
same,Mean±SD % inhibition,Sigma 1; quadruplicate,12.33 ± 12.50%
same,% Inhibition 1,Sigma 1; replicate 1,8.39%
same,% Inhibition 2,Sigma 1; replicate 2,1.56%
same,% Inhibition 3,Sigma 1; replicate 3,8.99%
same,% Inhibition 4,Sigma 1; replicate 4,30.38%
same,inhibition at 10 µM,5-HT6; [1],5.73 ± 17.3%
same,inhibition at 10 µM,5-HT6; [2],17.7%
same,inhibition at 10 µM,5-HT6; [3],23.2%
same,inhibition at 10 µM,5-HT6; [4],-12.3%
same,inhibition at 10 µM,5-HT6; [5],-5.73%
same,inhibition at 10 µM,5-HT1A; [1],-10.2 ± 8.4%
same,inhibition at 10 µM,5-HT1A; [2],-4.55%
same,inhibition at 10 µM,5-HT1A; [3],-4.08%
same,inhibition at 10 µM,5-HT1A; [4],-22.1%
same,inhibition at 10 µM,5-HT1A; [5],-9.84%
same,Mean±SD % inhibition,GABAA; quadruplicate,11.56 ± 11.5%
same,% Inhibition 1,GABAA; replicate 1,24.87%
same,% Inhibition 2,GABAA; replicate 2,0.04%
same,% Inhibition 3,GABAA; replicate 3,4%
same,% Inhibition 4,GABAA; replicate 4,17.31%
same,inhibition at 10 µM,5-HT1B; [1],13.4 ± 6.1%
same,inhibition at 10 µM,5-HT1B; [2],19%
same,inhibition at 10 µM,5-HT1B; [3],18%
same,inhibition at 10 µM,5-HT1B; [4],6.23%
same,inhibition at 10 µM,5-HT1B; [5],10.4%
same,inhibition at 10 µM,D3; [1],-4.9 ± 5.5%
same,inhibition at 10 µM,D3; [2],3.09%
same,inhibition at 10 µM,D3; [3],-9.41%
same,inhibition at 10 µM,D3; [4],-6.79%
same,inhibition at 10 µM,D3; [5],-6.5%
same,inhibition at 10 µM,DOR; [1],13.9 ± 19.1%
same,inhibition at 10 µM,DOR; [2],41%
same,inhibition at 10 µM,DOR; [3],8.06%
same,inhibition at 10 µM,DOR; [4],10.6%
same,inhibition at 10 µM,DOR; [5],-3.98%
same,inhibition at 10 µM,Alpha2C; [1],11.1 ± 20.6%
same,inhibition at 10 µM,Alpha2C; [2],38.6%
same,inhibition at 10 µM,Alpha2C; [3],2.3%
same,inhibition at 10 µM,Alpha2C; [4],-9.91%
same,inhibition at 10 µM,Alpha2C; [5],13.3%
same,inhibition at 10 µM,DAT; [1],4.6 ± 8.8%
same,inhibition at 10 µM,DAT; [2],-0.27%
same,inhibition at 10 µM,DAT; [3],-4.72%
same,inhibition at 10 µM,DAT; [4],8.47%
same,inhibition at 10 µM,DAT; [5],14.9%
